Experimental data published in patent US12643861B2, “Crystalline form of fluvatinib or fluvatinib methanesulfonate and preparation method therefor” (CHONGQING PHARMACEUTICAL RESEARCH INSTITUTE CO., LTD, priority 2020, dated 2026).
Structures can show the parent of a compound that is named as a salt. Where two headings read alike, the source gives them in different places.

Assays:
Assay type in all cases: physicochemical
[1] = Crystal transformation test of crystalline form I of fluvatinib stirred in solvents, XRPD; conditions: 40° C.
Procedure: The crystalline form I of fluvatinib was placed in an organic solvent and a water-containing organic solvent, and stirred at 40° C. for 2 days to investigate whether there was a crystal transformation.
A number parts of about 30 mg of the crystalline form I of fluvatinib (Form I) were respectively weighed and added to different glass bottles, and added with an appropriate amount of a single organic solvent or a mixture containing water (see Table 8) to form suspensions. The above-mentioned suspension samples were placed on magnetic stirrers (40° C.) to perform a stirring test. After being stirring at 40° C. for 2 days, the suspension samples were filtered. The filter cake samples were then dried overnight in a vacuum dry box (40° C.), and the dried samples were detected by XRPD (see Table 8 and FIG. 14).

[2] = Stability under high temperature and high humidity for half of a month or 3 months
[3] = Hydrothermal stability of the crystalline forms of fluvatinib mesylate, XRPD; conditions: Table 11
Procedure: The crystalline forms I, III, IV, V, VI, and VII of fluvatinib mesylate of the present disclosure were placed in harsh environments to investigate their stability. They were placed under high temperature and high humidity conditions: 25° C. 92.5% R.H for 7 days, 40° C. 75% R.H for 14 days, and 60° C. for 14 days, and then detected by XRPD.

[4] = Solubility compared with lenvatinib; conditions: method or value not given
[5] = High temperature suspension experiment (50° C.) in organic solvents, XRPD; conditions: 25 mg, 24 hours
Procedure: The crystalline form III of fluvatinib mesylate was subjected to high temperature suspension experiments (50° C.), to investigate whether the crystalline form III of fluvatinib mesylate undergoes crystal transformation in various type of common organic solvents, and whether it is stable. The crystalline form III of fluvatinib mesylate was suspended in 12 types of organic solvents (in 1 mL of solvent) and water as set forth in Table 10 at a temperature of 50° C. and an amount of about 25 mg for 24 hours. The solids after being suspended in the organic solvents were detected by XRPD.

[6] = Dynamic vapor sorption (DVS) hygroscopicity
Procedure: At the same time, the crystalline form I of fluvatinib mesylate was tested for dynamic hygroscopicity by DVS to detect water content. […] This indicates again that the crystalline form I of fluvatinib mesylate has good stability.
The crystalline form III of fluvatinib mesylate was tested for hygroscopicity under humidity conditions of 25° C., 0-90% RH, using a dynamic moisture tester a dynamic vapor sorption (DVS) analyzer.

[7] = Stability of crystalline form III of fluvatinib mesylate in air (oxygen gas), oxidation; conditions: exposed to air
Source text: To investigate the stability of the crystalline form III of fluvatinib mesylate (Form III), Form III was exposed to air and contacted with oxygen.

[8] = Crystal transformation of fluvatinib mesylate crystalline forms stirred in ethanol, XRPD
Procedure: The crystalline form of the fluvatinib methanesulfonate was investigated on its stability in ethanol, to see whether there is crystal transformation.
About 0.15 g of the crystalline forms II (Form II), III (Form III), VI (Form VI) and VII (Form VII) of the fluvatinib mesylate were weighed and respectively added to reaction flasks containing ethanol, stirred magnetically for 2 days at room temperature, and filtered. The filter cakes were dried at 40-50° C. with spinning under reduced pressure. The obtained dried samples were detected by XRPD.

[9] = Crystalline form stability on tableting and storage of tablets, XRPD; conditions: for crystal transformation during the process of preparing tablets: direct compression tablets, 30% crystalline form; for crystal transformation after the tablets being placed for 6 months: 40° C., 75% RH
Procedure: The formula amounts of the crystalline form of fluvatinib mesylate, anhydrous lactose and direct compression starch were mixed, and then mixed with magnesium stearate. The mixture was prepared into tablets by direct compression method, with each table weighed 200 mg.
The crystalline forms before and after being prepared into tablets and after the tablets being placed in 40° C., 75% RH environment for 6 months were detected by XRPD. The results are shown in FIGS. 19 and 20, wherein A, B, and C represent XRPD patterns of the crystalline form before and after being prepared into tablets and after the tablets being placed for 6 months.

[10] = Stability of crystalline form I of fluvatinib mesylate stirred in acetone, ethanol, ethyl acetate, XRPD; conditions: acetone or ethyl acetate, stirred 10 h at room temperature
Procedure: The crystalline form I of fluvatinib mesylate was stored in acetone, ethanol and ethyl acetate to investigate whether there was a crystal transformation.
3 parts of about 50 mg the crystalline form I of fluvatinib mesylate were weighed and respectively added to reaction flasks containing an appropriate amount of acetone, ethanol, or ethyl acetate solvent. The suspension samples were placed on magnetic stirrers, stirred for 10 h at room temperature, and filtered. The filter cake was dried at 40-50° C. with spinning under reduced pressure. The obtained dry samples were detected by XRPD.

[11] = listed as crystalline forms of fluvatinib
[12] = ethanol, stirred 2 days at room temperature
[13] = stirred in ethanol for 2-4 days

COc1cc2nccc(Oc3ccc(NC(=O)NC4CC4)c(Cl)c3F)c2cc1C(N)=O [crystalline form I of fluvatinib, 4-(2-fluoro-3-chloro-(cyclopropylaminocarbonyl)aminophenoxy)-7-methoxy-6-quinolinecarboxamide]
crystalline form after stirring for 2 days ([1]; THF 0.4 mL): Form I | crystalline form after stirring for 2 days ([1]; THF-water (1:1) 0.4 mL): Form I | crystalline form after stirring for 2 days ([1]; acetone 0.4 mL): Form I | crystalline form after stirring for 2 days ([1]; acetone-water (1:2) 0.4 mL): Form I | crystalline form after stirring for 2 days ([1]; ethanol 0.4 mL): Form I | crystalline form after stirring for 2 days ([1]; ethanol-water (3:1) 0.4 mL): Form I | crystalline form after stirring for 2 days ([1]; ethyl acetate 0.4 mL): Form I | crystalline form after stirring for 2 days ([1]; isopropanol 0.4 mL): Form I | crystalline form after stirring for 2 days ([1]; isopropanol-water (1:1) 0.4 mL): Form I | crystalline form after stirring for 2 days ([1]; methanol 0.4 mL): Form I | crystalline form after stirring for 2 days ([1]; methanol-water (3:1) 0.4 mL): Form I | change of content of related impurities / related substances [2, 11]: no change | crystal transformation [2, 11]: no occurrence of crystal transformation

COc1cc2nccc(Oc3ccc(NC(=O)NC4CC4)c(Cl)c3F)c2cc1C(N)=O [crystalline form III of fluvatinib mesylate] [fluvatinib methanesulfonate]
crystal transformation under high temperature and high humidity conditions [3]: did not undergo crystal transformation | solubility [4]: better than that of lenvatinib | XRD results ([5]; 1.4-dioxane 1 mL): Form III | XRD results ([5]; acetone 1 mL): Form III | XRD results ([5]; acetonitrile 1 mL): Form III | XRD results ([5]; cyclohexane 1 mL): Form III | XRD results ([5]; dichloromethane 1 mL): Form III | XRD results ([5]; ethanol 1 mL): Form III | XRD results ([5]; ethyl acetate 1 mL): Form III | XRD results ([5]; isopropanol 1 mL): Form III | XRD results ([5]; n-heptane 1 mL): Form III | XRD results ([5]; n-hexane 1 mL): Form III | XRD results ([5]; tetrahydrofuran 1 mL): Form III | hygroscopic weight ([6]; 25° C., 0-90% RH): 0.44% | Stability data in oxygen gas, oxidation ([7]; 20-30° C., 0 hour): 93.66% | Stability data in oxygen gas, oxidation ([7]; 20-30° C., 24 hours): 94.10% | Stability data in oxygen gas, oxidation ([7]; 60° C., 0 hour): 93.61% | Stability data in oxygen gas, oxidation ([7]; 60° C., 24 hours): 94.00% | change of content of related impurities / related substances [2]: no apparent change | crystal transformation [2]: did not show crystal transformation | crystal transformation in ethanol [8, 12]: did not undergo crystal transformation | crystal transformation in ethanol [8, 13]: did not undergo crystal transformation | crystal transformation during the process of preparing tablets [9]: neither the crystalline form I of fluvatinib mesylate nor the crystalline form III of fluvatinib mesylate undergoes crystal transformation | crystal transformation after the tablets being placed for 6 months [9]: no crystal transformation occurred

COc1cc2nccc(Oc3ccc(NC(=O)NC4CC4)c(Cl)c3F)c2cc1C(N)=O [crystalline form V of fluvatinib mesylate] [fluvatinib methanesulfonate]
crystal transformation under high temperature and high humidity conditions [3]: undergone crystal transformation

COc1cc2nccc(Oc3ccc(NC(=O)NC4CC4)c(Cl)c3F)c2cc1C(N)=O [crystalline form VII of fluvatinib mesylate] [fluvatinib methanesulfonate]
crystal transformation under high temperature and high humidity conditions [3]: undergone crystal transformation | crystal transformation in ethanol [8, 12]: converted to Form III | crystal transformation in ethanol [8, 13]: transformed into the crystalline form III

COc1cc2nccc(Oc3ccc(NC(=O)NC4CC4)c(Cl)c3F)c2cc1C(N)=O [crystalline form VI of fluvatinib mesylate] [fluvatinib methanesulfonate]
crystal transformation under high temperature and high humidity conditions [3]: undergone crystal transformation | crystal transformation in ethanol [8, 12]: converted to Form III | crystal transformation in ethanol [8, 13]: transformed into the crystalline form III

COc1cc2nccc(Oc3ccc(NC(=O)NC4CC4)c(Cl)c3F)c2cc1C(N)=O [crystalline form I of fluvatinib mesylate] [fluvatinib methanesulfonate]
crystal transformation under high temperature and high humidity conditions [3]: did not undergo crystal transformation | hygroscopic weight gain ([6]; 25° C./80% RH): 1.3% | crystal transformation after DVS measurements ([6]; XRPD before and after DVS): did not undergo crystal transformation | change of content of related impurities / related substances [2]: no apparent change | crystal transformation [2]: did not show crystal transformation | crystal transformation in single solvent [10]: maintained its form | crystal transformation during the process of preparing tablets [9]: neither the crystalline form I of fluvatinib mesylate nor the crystalline form III of fluvatinib mesylate undergoes crystal transformation | crystal transformation after the tablets being placed for 6 months [9]: no crystal transformation occurred

COc1cc2nccc(Oc3ccc(NC(=O)NC4CC4)c(Cl)c3F)c2cc1C(N)=O [crystalline form II of fluvatinib mesylate] [fluvatinib methanesulfonate]
crystal transformation in ethanol [8, 12]: converted to Form III | crystal transformation in ethanol [8, 13]: transformed into the crystalline form III
